We go through eleven molecules from patent publication US20020110801A1, “A Method for screening compounds for the modulation of cognitive function” (priority 1998, published 2002).

Data set [1] has as its system dendritic spine motility in hippocampal neurons expressing GFP-actin. It is filed as cell-based, rat. The note with it: for effect of NMDA receptor blockade on spine motility: antagonist alone; for influence on the inhibition of motility by AMPA: antagonist present with AMPA. The procedure:
In this example it is shown that dendritic spine motility is inhibited by AMPA. To assess the influence of glutamate receptors on dendritic spine motility video recordings are made during which agonists and antagonists of ionotropic glutamate receptors are transiently applied to hippocampal neurons expressing GFP-actin. For example, such a recording is made from part of the dendrite of a GFP-actin expressing cell in a culture that is exposed to 200 nM AMPA. In initial titration experiments, AMPA is effective at concentrations as low as 50 nM. […] The striking extent of this motility blockade may be illustrated by video data. […] In order to exclude the effect being a consequence of indirect NMDA receptor activation, the experiment may be repeated in presence of the selective NMDA receptor antagonists APV and MK801. Data may be recorded for several spines on a single dendrite segment at high magnification so that the effect of AMPA on individual spines is visible. […] The results for APV are equivalent. Such frames are taken from a longer video recording encompassing a much larger area of this dendrite and several different drug combinations. […]
All reagents for cell culturing are obtained either from Life Technologies, Basel, Switzerland, or from Sigma Chemicals/Fluka Biochemicals, Buchs, Switzerland. Cultures of primary rat hippocampal neurons are established exactly according to Goslin and Banker (Rat hippocampal neurons in low-density culture, in Culturing Nerve Cells (Bradford Book, MIT Press, Cambridge, Mass., 1991) G. Banker and K. Goslin, eds.). Briefly, dissected hippocampi of E19 rat embryos are digested with 0.25% trypsin for 15 min at 37° C. and triturated to yield a single cell suspension using a narrow-bore pasteur pipet. Neurons are plated onto polylysine treated glass coverslips in Eagle's minimal essential medium supplemented with 10% horse serum. After a 4 hr incubation the coverslips are turned over onto confluent layers of primary astroglial feeder layers in chemically defined Eagle's minimal essential medium with N2 supplement. Over a time period of 3-4 weeks, neurons develop large networks of processes and eventually matured to carry synapses on dendritic spines.
For live imaging, coverslips are mounted in saline in closed observation chambers (Type 1, Life Imaging Services, Olten, Switzerland) and placed at 37° C. on a DM-IRBE inverted fluorescence microscope (Leica, Basel, Switzerland) equipped with high numerical aperture oil lenses and a GFP-optimized filter set (Chroma Technologies, Brattleboro, Vt., USA). […]
Drugs are either applied by gravity feed perfusion or by removing the chamber lid and adding the test substance. […] The pH is adjusted to 7.2. [NMDA and AMPA receptor activity is influenced by the extracellular concentration of protons (Kashiwagi et al., 1997; Saybasili et al., 1998; Mc Donald et al., 1998)]

The subject of data set [2] is distribution of GFP-actin fluorescence in hippocampal neurons. Description: GFP-actin fluorescence intensity in successive video frames. The format is cell-based, rat. From the text: In this example it is shown that AMPA treatment appears to involve a redistribution of spine actin. A further consistent consequence of treating hippocampal neurons with AMPA is a visible change in the distribution of GFP-actin fluorescence involving an apparent shift toward a concentration in the centre of the spine head. GFP-actin fluorescence intensity may be measured in successive frames of video recordings in which AMPA is transiently present. Measurements are made for a whole dendritic segment and within boxes of the same area placed in the center of spine heads or on the dendritic shaft, respectively. […] This phenomenon could reflect some general aspect of gfp fluorescence in response to an altered ion concentration or pH of the local cytoplasm. Fluorescence excitation of gfp in solution decreases at low pH. Therefore the observed decrease in brightness might be attributed to a lowered pH, mediated by glutamate receptor activation. Application of glutamate or Ca2+ ionophores to rat primary cultured hippocampal neurons is shown to induce a persistent acidosis. To account for this effect, data are normalized for single spines to the overall brightness of the dendrite. The average brightness from the boxes during the recordings for three randomly selected spines may then be evaluated. […] For above mentioned reasons, it is not entirely clear, if the apparent reduction in spine diameter is due to loss of actin fluorescence because of pH shifts or actin concentration in the center of spine heads, but comparison of phase and GFP-actin pictures argue in favour of changes in spine head size. The same caution has to apply to changes in the diameter of the spine neck, which have been postulated to influence synaptic weight by altering the electrical resistance. Those structures are extremely small and for a detailed analysis electronmicroscopic analysis would be favourable.

Data set [3] has as its system actin-based motility in dendritic spines. Description: video time-lapse recording of dendritic spine motility (shape factor) in GFP-actin transfected hippocampal neurons, volatile anaesthetics. The format is cell-based, rat. The note with it: for Effective conc. for spine motility: calculated from concentration of saturated solution at 25° C. used as stock solution; for effect on spine shape change / spine motility in presence of the anaesthetic: clinically relevant concentrations in saline; for spine motility after the anaesthetic is removed: washout. On the procedure: To examine the influence of volatile anaesthetics on spine motility their effects on live, cultured hippocampal neurons that have been transfected with green fluorescent protein-tagged actin (GFP-actin) to render their dendritic spines visible are studied.
The following example further illustrates the employment of an assay according to the invention. First, the shape of a dendritic spine on a rat hippocampal neuron in culture as visualized by GFP-actin enriched in the spine head is recorded about every 5 sec over a period of about 6 min prior to perfusion with isoflurane. Then the cells are slowly perfused with isoflurane at clinically relevant concentrations in saline. This step is followed by an additional time-lapse recording over about 6 min. Then a morphometric analysis of spine shape is done using the integrated morphometry analysis interface in Metamorph 3.0. In particular, the shape factor calculated from the perimeter and the area of the spine illustrates changes in spine shape.
All reagents for cell culturing are obtained either from Life Technologies, Basel, Switzerland, or from Sigma Chemicals/Fluka Biochemicals, Buchs, Switzerland. […] Neurons are plated onto polylysine treated glass coverslips in Eagle's minimal essential medium supplemented with 10% horse serum. After a 4 hr incubation the coverslips are turned over onto confluent layers of primary astroglial feeder layers in chemically defined Eagle's minimal essential medium with N2 supplement. Over a time period of 3-4 weeks, neurons develop large networks of processes and eventually matured to carry synapses on dendritic spines.
For live imaging, coverslips are mounted in saline in closed observation chambers (Type 1, Life Imaging Services, Olten, Switzerland) and placed at 37° C. on a DM-IRBE inverted fluorescence microscope (Leica, Basel, Switzerland) equipped with high numerical aperture oil lenses and a GFP-optimized filter set (Chroma Technologies, Brattleboro, Vt., USA).
Images are captured using a cooled CCD camera (Princeton Instruments, Trenton, N.J., USA) and MetaMorph Imaging Software version 3.0 (Universal Imaging Corporation, West Chester, Pa., USA). Anaesthetics are diluted from saturated solutions in saline into prewarmed saline immediately prior to slow perfusion into the closed observation chambers at a rate of approx. 0.5 ml/min for a total exchange of 5 ml volume.
For analysis of spine shape over time the integrated morphometric function of MetaMorph 3.0, in particular the shape factor of thresholded objects calculated from their perimeter and their area, is used to log the data for individual images directly to Microsoft Excel 97.

The conditions of data set [4]: in phosphate-buffered saline; McKenzie et al. 1995; cited from earlier work.
Data set [5] concerns tadpoles. The note with it: based on EC50 in tadpoles; read-out: Effective conc. for anesthesia; cited from earlier work.
Data set [6] concerns rats. The note with it: based on minimal alveolar concentration (MAC) in rats; cited from earlier work.
The test system of data set [7] is rat embryo fibroblasts. Description: TPA-induced membrane ruffling, rhodamine-phalloidin staining of actin. The format is cell-based. Particulars: pretreatment of cells; 100 nM TPA 15 min. An excerpt:
The results of these experiments on neurons pose the question of whether volatile anaesthetics act directly on actin in dendritic spines or indirectly through neurotransmitter receptors, which are also influenced by these agents at clinically relevant concentrations, or some other component of central synapses. To choose between these possibilities the influence of volatile anaesthetics on actin-based motility is examined in fibroblastic cells, where neurotransmitter receptors and other elements of the synaptic machinery are absent. […] Resting layers of rat embryo fibroblasts in saline are treated for 15 min with 100 nM TPA which induces membrane ruffling. Cells are fixed and stained with rhodamine-labelled phalloidin to visualize actin enrichment in ruffles at the edges of the cells. […]
For analysis of the actin cytoskeleton in REF52, cells plated on glass coverlips are serum-starved for several hours prior to the experiment. […] Cells are then fixed with 4% paraformaldehyde (Fluka Biochemicals, Buchs, Switzerland) in phosphate-buffered saline with 0.02% Triton X-100 (Fluka Biochemicals, Buchs, Switzerland) and […] rhodamine-labelled phalloidin F(Sigma Chemicals, Buchs, Switzerland) for 10 min at room temperature, rinsed in phosphate-buffered saline and mounted in Vectashield (Vector Laboratories, Burlingame, Calif., USA) for inspection on the fluorescence microscope.

Data set [8] relates to pure actin. Description: pyrene-actin fluorescence assay of actin filament assembly in vitro. The note with it: during assembly or added to pre-formed filaments. It is filed as biochemical. The procedure: Since actin-based motility in dendritic spines depends on the actin polymerization cycle the possible influence of isoflurane on actin filament assembly is tested in vitro using a well-established pyrene-actin fluorescence assay.

The structures appear in SMILES notation. Marks after values point to notes of the source that are not given here.

As to `Cc1onc(OCC(=O)O)c1CC(N)C(=O)O` (stereo not shown) [AMOA, 2-amino-3-[3-(carboxymethoxy)-5-methyl-isoxazol-4-yl]propionic acid], the “block of the effect of AMPA on spine motility” value in data set [1] (AMPA receptor antagonist applied with AMPA) was “entirely blocked”.

`Cc1onc(O)c1CC(N)C(=O)O` (stereo not drawn) [AMPA, α-amino-3-hydroxy-5-methylisoxazole-4-propionic acid]: in data set [1] (50 nM to 200 nM), the “dendritic varicosities associated with subsequent cell death” value is listed as “do not produce dendritic varicosities” and the “reversibility of effect on spine motility” value is reported as “reversible”. In addition, in data set [1] (200 nM AMPA present), the spine movement entry is on record as “spine movement effectively ceases”. Besides, the “lowest effective concentration on spine motility” value in data set [1] (initial titration experiments) came to 50 nM. Further, in data set [2] (after application of AMPA), the “GFP-actin fluorescence intensity over the whole dendrite” value is “decrease in intensity”. Further, in data set [2] (normalized to overall brightness of the dendrite), the “average brightness of the dendritic shaft” value was “reduced”. The “GFP-actin fluorescence intensity in the centre of spine heads” value in data set [2] (three randomly selected spines, normalized to overall brightness of the dendrite) is on record as “marked increase”.

As for `N[C@@H](CCCP(=O)(O)O)C(=O)O` [APV], in data set [1], the “effect of NMDA receptor blockade on spine motility” value is “equivalent” and the “influence on the inhibition of motility by AMPA” value is on record as “equivalent”.

As for `ClC(Cl)Cl` [Chloroform], in data set [3], the “Effective conc. for spine motility” value is listed as 1.33 mM, the “effect on spine shape change / spine motility in presence of the anaesthetic” value was “variation in spine shape is minimal” and the “spine motility after the anaesthetic is removed” value was “rapid changes in spine shape are resumed”. The “concentration of saturated solution” value in data set [4] is 66000 µM. Further, the EC50 in data set [5] is 1.3 mM.

As for `CCOCC` [Diethylether, diethylether], the “Effective conc. for spine motility” value in data set [3] is given as 20.4 mM. Also, the “concentration of saturated solution” value in data set [4] was 816000 µM. Besides, the EC50 in data set [5] was 25 mM.

For `FC(F)OC(F)(F)C(F)Cl` (stereo not shown) [Enflurane], the “Effective conc. for spine motility” value in data set [3] is listed as 0.30 mM. The “Effective conc. for anesthesia” value in data set [6] was 0.64^a mM. In data set [4], the “concentration of saturated solution” value is 11900 µM.

As for `FC(F)(F)C(Cl)Br` (stereo not shown) [Halothane], the “Effective conc. for spine motility” value in data set [3] is 0.23 mM. For the same molecule, the “Effective conc. for anesthesia” value in data set [6] is given as 0.27^a mM.

For `FC(F)OC(Cl)C(F)(F)F` (stereo not shown) [Isoflurane], in data set [7], the TPA-induced actin ruffles result is reported as “prevents TPA-induced actin ruffles”. In data set [3], the “Effective conc. for spine motility” value is 0.30 mM, the “effect on spine shape change / spine motility in presence of the anaesthetic” value is “it remains constant” and the “spine motility after the anaesthetic is removed” value was “recovery of motility”. For the same molecule, the spine motility entry in data set [3] (dilution of 1:50 of saturated solution) is “fully inhibited”. For the same molecule, in data set [3] (dilution of 1:60 of saturated solution), the spine motility result is reported as “fully motile”. Further, in data set [3] (dilution of 1:100 of saturated solution), the spine motility entry is reported as “fully motile”. In addition, the “effect on polymerization state of pure actin” value in data set [8] is reported as “no detectable effect”. In addition, in data set [6], the “Effective conc. for anesthesia” value is 0.31^a mM. The “concentration of saturated solution” value in data set [4] was 15300 µM.

Regarding `C=C(C)[C@H]1CN[C@H](C(=O)O)[C@H]1CC(=O)O` [Kainate], in data set [1], the “mimics the effect of AMPA on spine motility” value is “mimicked”.

For the molecule `C[C@]12N[C@H](Cc3ccccc31)c1ccccc12` [MK801], in data set [1], the “effect of NMDA receptor blockade on spine motility” value is listed as “does not inhibit spine motility” and the “influence on the inhibition of motility by AMPA” value was “does not influence”.

Regarding `COC(F)(F)C(Cl)Cl` [methoxyflurane, Methoxyflurane], the “concentration of saturated solution” value in data set [4] was 9100 µM.
